Measurements as given in US5324747A, “N-substituted anilines, inhibitors of phospholipases A2” (Hoffmann-La Roche Inc., priority 1992, dated 1994).
pIC50: −log10 of the molar value.

Columns and labels:
[1] = system: Croton Oil Mouse Ear Edema; assay: Croton Oil Mouse Ear Edema Test; format: in vivo, CD-1 mice; settings: topical, coapplied, 6 hours
Method: Twenty five μl of a 1% croton oil solution [dissolved in a mixture of pyridine/water/diethyl ether at a ratio of 5/20/75 (croton oil vehicle)] are applied to the outer side of the right ear of 3-4 week old made CD-1 mice (8 animals per group). The test compounds are dissolved directly in the 1% croton oil solution at various concentrations and coapplied. Control animals receive 25 μl of croton oil vehicle on the right ear. Biopsy punches are removed at 6 hours from the right ear of the animals using a 6 mm skin trephine (Roboz, Washington, D.C.) and the wet weight of the ear punches is determined. The weight of the biopsy punches is a measure of ear inflammation, primarily edema. The data are expressed as percent inhibition relative to control groups.

HSF-PLA2 = target: T1, HSF-PLA2 (Homo sapiens, UniProt P14555); assay: Assay for Inhibition of HSF-PLA2 In Vitro; format: biochemical; settings: for inhibition at 5 µM / inhibition at 1 µM: read-out: Inhib of HSF-PLA2, % inhibition; for pIC50: read-out: Inhib of HSF-PLA2 IC50
T1 construct: extracellular enzyme obtained from human synovial fluid (HSF-PLA2); from tissue; host or cells: pooled human synovial fluid, added at 0.1% (v/v)
T1 sequence (P14555 21-144): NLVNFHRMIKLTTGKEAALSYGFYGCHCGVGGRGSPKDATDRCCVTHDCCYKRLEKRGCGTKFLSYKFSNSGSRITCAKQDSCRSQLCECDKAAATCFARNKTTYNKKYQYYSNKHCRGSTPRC
Method: Assay for Inhibition of HSF-PLA2 In Vitro
The PLA2 used in this test is the extracellular enzyme obtained from human synovial fluid (HSF-PLA2).
The optimal conditions which were developed for the assay of HSF-PLA2 inhibitors are summarized as follows. […] The reaction was initiated by the addition of HSF-PLA2 and duplicate samples of the mixture were incubated in 13×100 mm glass tubes with shaking for 30 minutes at 37° C. […] The extraction of lipids from the stopped reaction mixture was conducted by the further additions of […] of chloroform and 1 ml of water with mixing. After centrifuging, the lower chloroform phase was transferred to smaller glass tubes and the solvent was evaporated to dryness with a nitrogen stream. The extracted lipid residue was redissolved in 50 μl of a solution containing carrier oleic acid (0.2 mg/ml) of chloroform-methanol [9 to 1, v/v]). The whole lipid extract was applied to a preactivated (30 minutes at 110° C.) silica gel-impregnated glass fiber thin layer chromatography sheet (ITLC type SG sheet from Gelman Sciences, Inc., Ann Arbor, Mich.) using hexane-acetic acid (100 to 1, v/v) as the developing solvent. This TLC system rapidly (6 minutes) resolved the enzymatically released product, ^14 C-oleic acid, from the unreacted ^14 C-phospholipid substrate. The unsaturated lipids were located on the chromatogram by a brief exposure to iodine vapor. […] A control incubation of substrate in the absence of HSF-PLA2 was performed in each experiment.

PLA2 Rat Paw Edema = assay: Phospholipase A2 Rat Paw Edema; format: in vivo, Lewis rats; settings: for inhibition in vivo at 30 mg/kg: Rattus norvegicus, 2 hr, read-out: % Inhib of PLA2 Rat Paw Edema 2 hr (30 mg/kg)
Method: Phospholipase A2 Rat Paw Edema
Representation compounds of the invention were tested in rats to determine their ability to inhibit the acute inflammatory response induced by the injection of snake venom phospholipase A2. Test compounds are administered intraperitoneally or orally to groups of seven Lewis rats (≈200 gm) 1 hr prior to phospholipase A2 administration. The test compounds are dissolved in dimethyl sulfoxide for intraperitoneal administration and dissolved or suspended in Labrafil M-1944CS for oral administration. At 0 hr, 5 ug (10 units) of purified phospholipase A2 from Naja naja venom (Sigma Chem. Co.) dissolved in 0.1 mL of pyrogen free saline is injected subplantarly into the right hind paw to elicit the inflammatory response. The volume (in mL) of the right hind paw is measured by immersion of the paw to the level of the lateral malleolus in an aqueous plethysmometer immediately prior to the injection of phospholipase A2 and then at 0.5, 2 and 4 hr after phospholipase A2 injection. The paw edema is calculated by subtracting the zero time reading from the readings taken after injection. The percent change of the edema volume from the vehicle treated control is calculated to determine the activity of the test compound. Statistical analysis of the mean paw edema values of the control versus the treated groups is performed using Student's t-test. Significance of changes from mean value for vehicle-treated animals (*p<0.05, **p<0.01, ***p<0.001, ns/not significant).

SMILES: CCCCCCCCCCCCCCCCCCOc1cc(C(N)=O)cc(N(CC(=O)O)CC(=O)O)c1 [Example 75, N-(Carboxymethyl)-N-[(3-carbamoyl)-5-(octadecyloxy)phenyl]glycine]
- % Inhib of Croton Oil Mouse Ear Edema (1 mg) [1]: 15%
- inhibition at 5 µM (HSF-PLA2): 84%
- inhibition in vivo at 30 mg/kg (PLA2 Rat Paw Edema): 33%

SMILES: CCCCCCCCCCOc1cc(OCCCCCCCCCC)cc(N(CC(N)=O)CC(=O)O)c1.N [Example 32, N-(Carbamoylmethyl)-N-[3,5-bis(decyloxy)phenyl]glycine ammonium salt]
- % Inhib of Croton Oil Mouse Ear Edema (1 mg) [1]: 54%
- inhibition at 1 µM (HSF-PLA2): 48%
- inhibition in vivo at 30 mg/kg (PLA2 Rat Paw Edema): 23%

SMILES: CCCCCCCCCCCCCCCCCCNC(=O)Nc1cccc(N(CC(=O)O)CC(=O)O)c1 [Example 36e, N-(carboxymethyl)-N-[3-[[(octadecylamino)carbonyl]amino]phenyl]glycine]
- % Inhib of Croton Oil Mouse Ear Edema (1 mg) [1]: 31%
- inhibition at 5 µM (HSF-PLA2): 74%
- inhibition in vivo at 30 mg/kg (PLA2 Rat Paw Edema): 30%

SMILES: CCCCCCCCCCCCCCCCCNC(=O)Oc1cccc(N(CC(=O)O)CC(=O)O)c1 [Example 36c, N-(carboxymethyl)-N-[3-[[(heptadecylamino)carbonyl]oxy]phenyl]glycine]
- % Inhib of Croton Oil Mouse Ear Edema (1 mg) [1]: 0%
- pIC50 (HSF-PLA2): 6.00
- inhibition in vivo at 30 mg/kg (PLA2 Rat Paw Edema): 0%

SMILES: O=C(O)CN(CC(=O)O)c1cc(OCCCOc2ccccc2-c2ccccc2)cc(OCCCOc2ccccc2-c2ccccc2)c1 [Example 6l]
- % Inhib of Croton Oil Mouse Ear Edema (1 mg) [1]: 30%
- pIC50 (HSF-PLA2): 6.38
- inhibition in vivo at 30 mg/kg (PLA2 Rat Paw Edema): 0%

SMILES: CCCCCCCCCCCCCCCCCCOc1cc(OCCOc2ccc3ccccc3c2)cc(N(CC(=O)O)CC(=O)O)c1 [Example 58h, N-(carboxymethyl)-N-[3-[2-(2-naphthalenyloxy)ethoxy]-5-(octadecyloxy)phenyl]glycine]
- % Inhib of Croton Oil Mouse Ear Edema (1 mg) [1]: 3%
- pIC50 (HSF-PLA2): 7.30
- inhibition in vivo at 30 mg/kg (PLA2 Rat Paw Edema): 31%

SMILES: COC(=O)CCCCCCCCCCOc1cc(OCCCCCCCCCCC(=O)OC)cc(N(CC(=O)O)CC(=O)O)c1 [Example 6j, N-(carboxymethyl)-N-[3,5-bis[(11-methoxy-11-oxoundecyl)oxy]phenyl]glycine]
- % Inhib of Croton Oil Mouse Ear Edema (1 mg) [1]: 66%
- pIC50 (HSF-PLA2): 6.52
- inhibition in vivo at 30 mg/kg (PLA2 Rat Paw Edema): 0%

SMILES: CCCCCCCCCCCCCCCCCCOc1cc(N)cc(N(CC(=O)O)CC(=O)O)c1 [Example 94, N-(Carboxymethyl)-N-[3-amino-5-(octadecyloxy)phenyl]glycine]
- % Inhib of Croton Oil Mouse Ear Edema (1 mg) [1]: 10%
- pIC50 (HSF-PLA2): 6.38
- inhibition in vivo at 30 mg/kg (PLA2 Rat Paw Edema): 28%

SMILES: CCCCCCCCCCOC(=O)c1cc(C(=O)OCCCCCCCCCC)cc(N(CC(=O)O)CC(=O)O)c1 [Example 6v, N-(carboxymethyl)-N-[3,5-bis[(decyloxy)carbonyl]phenyl]glycine]
- % Inhib of Croton Oil Mouse Ear Edema (1 mg) [1]: 80%
- inhibition at 1 µM (HSF-PLA2): 73%
- inhibition in vivo at 30 mg/kg (PLA2 Rat Paw Edema): 9%

SMILES: CCCCCCCCCCCCCCCCCCOc1cc(OCCCOc2ccc(O)cc2)cc(N(CC(=O)O)CC(=O)O)c1 [Example 58l, N-(carboxymethyl)-N-[3-[3-(4-hydroxyphenoxy)propoxy]-5-(octadecyloxy)phenyl]glycine]
- % Inhib of Croton Oil Mouse Ear Edema (1 mg) [1]: 76%
- inhibition at 1 µM (HSF-PLA2): 81%
- inhibition in vivo at 30 mg/kg (PLA2 Rat Paw Edema): 53%

SMILES: CCCCCCCCCCCCCCCCCC(=O)Oc1cccc(N(CC(=O)O)CC(=O)O)c1 [Example 36b]
- % Inhib of Croton Oil Mouse Ear Edema (1 mg) [1]: 61%
- pIC50 (HSF-PLA2): 6.70
- inhibition in vivo at 30 mg/kg (PLA2 Rat Paw Edema): 0%

SMILES: CCCCCCCCCCCCCCOc1cc(C(=O)O)cc(N(CC(=O)O)CC(=O)O)c1 [Example 69b, N-[3-carboxy-5-(tetradecyloxy)pyhenyl]-N-(carboxymethyl)glycine]
- % Inhib of Croton Oil Mouse Ear Edema (1 mg) [1]: 72%
- inhibition at 1 µM (HSF-PLA2): 18%
- inhibition in vivo at 30 mg/kg (PLA2 Rat Paw Edema): 4%

SMILES: CCCCCCCCCCCCCCCCCCOc1cc(O)cc(N(CC(=O)O)CC(=O)O)c1 [Example 81, N-(Carboxymethyl)-N-[3-hydroxy-5-(octadecyloxy)phenyl]glycine]
- % Inhib of Croton Oil Mouse Ear Edema (1 mg) [1]: 69%
- pIC50 (HSF-PLA2): 6.64
- % Inhib of PLA2 Rat Paw Edema 2 hr (PLA2 Rat Paw Edema; (10 mg/kg)): 44%

SMILES: CCCCCCCCCCCCCCOC(=O)c1cc(C(=O)OCCCCCCCCCCCCCC)cc(N(CC(=O)O)CC(=O)O)c1 [Example 25, N-(Carboxymethyl)-N-[3,5-bis[(tetradecyloxy)carbonyl]phenyl]glycine]
- % Inhib of Croton Oil Mouse Ear Edema (1 mg) [1]: 62%
- inhibition at 1 µM (HSF-PLA2): 48%
- inhibition in vivo at 30 mg/kg (PLA2 Rat Paw Edema): 17%

SMILES: CCCCCCCCCCNC(=O)c1cc(NCC(=O)O)cc(C(=O)NCCCCCCCCCC)c1 [Example 12, N-[3,5-Bis[(decylamino)carbonyl]phenyl]glycine]
- % Inhib of Croton Oil Mouse Ear Edema (1 mg) [1]: 70%
- pIC50 (HSF-PLA2): 5.28
- inhibition in vivo at 30 mg/kg (PLA2 Rat Paw Edema): 34%

SMILES: CCCCCCCCCCCCCCCCCCOc1cc(OCC(=O)O)cc(N(CC(=O)O)CC(=O)O)c1 [Example 58c, N-[3-(carboxymethoxy)-5-(octadecyloxy)phenyl]-N-(carboxymethyl)glycine]
- % Inhib of Croton Oil Mouse Ear Edema (1 mg) [1]: 0%
- pIC50 (HSF-PLA2): 5.55
- inhibition in vivo at 30 mg/kg (PLA2 Rat Paw Edema): 39%

SMILES: CCCCCCCCCCOc1cc(C(=O)O)cc(N(CC(=O)O)CC(=O)O)c1 [Example 69d, N-[3-carboxy-5-(decyloxy)phenyl]-N-(carboxymethyl)glycine]
- % Inhib of Croton Oil Mouse Ear Edema (1 mg) [1]: 63%
- inhibition at 1 µM (HSF-PLA2): 7%
- inhibition in vivo at 30 mg/kg (PLA2 Rat Paw Edema): 0%

SMILES: CCCCCCCCCCCCCCCCCCOc1cc(OCCCOc2ccc(C(=O)OC)cc2)cc(N(CC(=O)O)CC(=O)O)c1 [Example 58o, N-(carboxymethyl)-N-[3-[3-[4-(methoxycarbonyl)phenoxy)propoxy]-5-(octadecyloxy)phenyl]glycine]
- % Inhib of Croton Oil Mouse Ear Edema (1 mg) [1]: 30%
- pIC50 (HSF-PLA2): 7.00
- inhibition in vivo at 30 mg/kg (PLA2 Rat Paw Edema): 0%

SMILES: CCCCCCCCCCOc1cc(OCCCCCCCCCC)cc(N2CC(=O)OC(=O)C2)c1 [Example 30, 4-[3,5-bis(decyloxy)phenyl]2,6-morpholinedione]
- % Inhib of Croton Oil Mouse Ear Edema (1 mg) [1]: 63%
- pIC50 (HSF-PLA2): 6.33
- inhibition in vivo at 30 mg/kg (PLA2 Rat Paw Edema): 91%

SMILES: CCCCCCCCCCCCCCCCCCOc1cc(C(=O)OC)cc(N(CC(=O)O)CC(=O)O)c1 [Example 69, N-(Carboxymethyl)-N-[3-(methoxycarbonyl)-5-(octadecyloxy)phenyl]glycine]
- % Inhib of Croton Oil Mouse Ear Edema (1 mg) [1]: 22%
- pIC50 (HSF-PLA2): 7.00
- inhibition in vivo at 30 mg/kg (PLA2 Rat Paw Edema): 57%

SMILES: CCCCCCCCCCCCCCCCCCOc1cc(OCc2ccc3ccccc3n2)cc(N(CC(=O)O)CC(=O)O)c1 [Example 148, N-(Carboxymethyl)-N-[3-(octadecyloxy)-5-[(2-quinolinyl)methoxy]phenyl]glycine]
- % Inhib of Croton Oil Mouse Ear Edema (1 mg) [1]: 26%
- inhibition at 1 µM (HSF-PLA2): 91%
- inhibition in vivo at 30 mg/kg (PLA2 Rat Paw Edema): 37%

SMILES: CCCCCCCCCCCCCCCCCCNC(=O)c1cccc(N(CC(=O)O)CC(=O)O)c1 [Example 42]
- % Inhib of Croton Oil Mouse Ear Edema (1 mg) [1]: 0%
- pIC50 (HSF-PLA2): 6.40
- inhibition in vivo at 30 mg/kg (PLA2 Rat Paw Edema): 38%

SMILES: CCCCCCCCCC(=O)Oc1ccc(N(CC(=O)O)CC(=O)O)cc1OC(=O)CCCCCCCCC [Example 123, N-(Carboxymethyl)-N-[3,4-bis[(1-oxodecyl)oxy]phenyl]glycine]
- % Inhib of Croton Oil Mouse Ear Edema (1 mg) [1]: 58%
- pIC50 (HSF-PLA2): 6.32
- inhibition in vivo at 30 mg/kg (PLA2 Rat Paw Edema): 4%

SMILES: CCCCCCCCCCCCCCCCCCOc1cc(OCCCOc2ccc(OC)cc2)cc(N(CC(=O)O)CC(=O)O)c1 [Example 58k, N-(carboxymethyl)-N-[3-[3-(4-methoxyphenoxy)propoxy]-5-(octadecyloxy)phenyl]glycine]
- % Inhib of Croton Oil Mouse Ear Edema (1 mg) [1]: 85%
- pIC50 (HSF-PLA2): 7.30
- inhibition in vivo at 30 mg/kg (PLA2 Rat Paw Edema): 0%

SMILES: CCCCCCCCCCN(CCCCCCCCCC)C(=O)c1cccc(N(CC(=O)O)CC(=O)O)c1 [Example 174]
- % Inhib of Croton Oil Mouse Ear Edema (1 mg) [1]: 29%
- inhibition at 5 µM (HSF-PLA2): 74%
- inhibition in vivo at 30 mg/kg (PLA2 Rat Paw Edema): 46%
